For data set [1], the target named is T1, Amine oxidase [flavin-containing] A (Homo sapiens, UniProt P21397).
T1 sequence (P21397 whole entry): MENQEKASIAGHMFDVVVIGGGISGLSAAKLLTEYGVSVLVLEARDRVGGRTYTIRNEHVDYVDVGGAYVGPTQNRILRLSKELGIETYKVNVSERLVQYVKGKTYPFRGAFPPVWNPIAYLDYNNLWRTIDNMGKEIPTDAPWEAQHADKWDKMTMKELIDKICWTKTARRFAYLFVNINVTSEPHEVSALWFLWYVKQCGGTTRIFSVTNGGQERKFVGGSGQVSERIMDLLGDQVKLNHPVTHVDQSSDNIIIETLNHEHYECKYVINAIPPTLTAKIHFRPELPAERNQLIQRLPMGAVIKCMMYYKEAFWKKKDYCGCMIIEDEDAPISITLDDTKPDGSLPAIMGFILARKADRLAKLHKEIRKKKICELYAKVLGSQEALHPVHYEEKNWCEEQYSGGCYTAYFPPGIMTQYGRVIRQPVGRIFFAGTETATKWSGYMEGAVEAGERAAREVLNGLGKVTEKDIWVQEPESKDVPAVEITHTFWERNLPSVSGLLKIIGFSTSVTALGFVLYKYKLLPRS
As to the kind of experiment: Inhibition of recombinant human MAO-A expressed in baculovirus infected BTI insect cells assessed as reduction in H2O2 production using p-tyramine as substrate pretreated for 30 mins followed by substrate addition after 30 mins by Amplex red reagent based assay.

For another data set, the species on record is Homo sapiens. The experiment in a line: Selectivity index, ratio of IC50 for recombinant human MAO-A to IC50 for recombinant human MAO-B.
Data set [2] addresses T2, Amine oxidase [flavin-containing] B (Homo sapiens, UniProt P27338).
T2 sequence (P27338 whole entry): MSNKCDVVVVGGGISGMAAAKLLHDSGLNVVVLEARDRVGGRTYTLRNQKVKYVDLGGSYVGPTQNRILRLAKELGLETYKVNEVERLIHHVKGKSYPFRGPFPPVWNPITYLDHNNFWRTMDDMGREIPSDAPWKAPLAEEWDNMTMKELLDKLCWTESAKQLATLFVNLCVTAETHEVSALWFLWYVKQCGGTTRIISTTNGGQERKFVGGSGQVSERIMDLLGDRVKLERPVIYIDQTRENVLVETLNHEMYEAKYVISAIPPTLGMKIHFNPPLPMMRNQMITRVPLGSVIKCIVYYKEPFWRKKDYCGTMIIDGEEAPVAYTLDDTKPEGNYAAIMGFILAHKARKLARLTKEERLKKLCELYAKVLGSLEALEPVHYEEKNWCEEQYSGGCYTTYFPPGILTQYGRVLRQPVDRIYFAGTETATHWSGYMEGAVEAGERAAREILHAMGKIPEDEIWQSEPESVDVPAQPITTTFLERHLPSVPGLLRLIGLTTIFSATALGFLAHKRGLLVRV
The experiment in a line: Inhibition of recombinant human MAO-B expressed in baculovirus infected BTI insect cells assessed as reduction in H2O2 production using p-tyramine as substrate pretreated for 30 mins followed by substrate addition after 30 mins by Amplex red reagent based assay.

Data set [3] relates to PC-12. The experiment in a line: Neuroprotective activity against rotenone-induced toxicity in rat PC12 cells at 50 to 100 uM pretreated followed by rotenone challenge measured after 24 hrs. In kind it is functional, cell-based.
Data set [4] relates to PC-12. As to the kind of experiment: Neuroprotective activity against H2O2-induced toxicity in rat PC12 cells at 50 to 100 uM pretreated followed by H2O2 challenge measured after 24 hrs. In kind it is functional, cell-based.
Data set [5] deals with T2, Amine oxidase [flavin-containing] B. As to the kind of experiment: Reversible inhibition of recombinant human MAO-B expressed in baculovirus infected BTI insect cells assessed as reduction in H2O2 production using p-tyramine as substrate at 3 times IC50 pretreated up to 60 mins followed by substrate addition after 30 mins by Amplex red reagent based assay. The settings on record: 0.5 h.

Data set [6] is described as follows: Cytotoxicity against human SH-SY5Y cells assessed as cell viability at 50 uM after 24 hrs by WST-1 assay relative to control. In kind it is cell-based. The conditions noted are these: read-out: Activity.
Data set [7] in a line: Cytotoxicity against rat PC12 cells assessed as cell viability at 50 uM after 24 hrs by WST-1 assay relative to control. It counts as cell-based, PC-12. The settings on record: read-out: Activity.
A short description of data set [8]: Cytotoxicity against rat PC-12 Adh cells assessed as cell viability at 50 uM after 24 hrs by WST-1 assay relative to control. It counts as cell-based. The conditions noted are these: read-out: Activity.
The target of data set [9] is T2, Amine oxidase [flavin-containing] B. As to the kind of experiment: Competitive inhibition of recombinant human MAO-B expressed in baculovirus infected BTI insect cells assessed as reduction in H2O2 production at 4 to 16 nM using varying levels of p-tyramine as substrate pretreated up to 60 mins followed by substrate addition measured after 30 mins by Line-weaver burk plot analysis. The conditions noted are these: 0.5 h.

Data set [10] has the same target. As to the kind of experiment: Competitive inhibition of recombinant human MAO-B expressed in baculovirus infected BTI insect cells assessed as reduction in H2O2 production at 11 to 44 nM using varying levels of p-tyramine as substrate pretreated up to 60 mins followed by substrate addition measured after 30 mins by Line-weaver burk plot analysis. The settings on record: 0.5 h.

Molecules are shown by their SMILES. The source made the active and inactive calls. The calls are words filed in the database; no cut-off is given here. Where only a bound is given, the exact number is not on record here.

For `O=C1COC(c2ccc(/C=C/c3ccccc3)cc2)=NN1`, the IC50 in [1] is greater than 100000 nM; in data set [2] it was 165 nM. The Ratio IC50 in the data set filed under Homo sapiens is greater than 606.

For the compound `O=C1COC(c2ccc(/N=C/c3ccc(Cl)cc3)cc2)=NN1`, the IC50 in [1] was greater than 100000 nM; in data set [2], 433 nM. Moreover, the Ratio IC50 in the data set listed under Homo sapiens was greater than 231.

As for `NC(=O)CN1N=C(c2ccc(NC(=O)c3cccc(Cl)c3)cc2)OCC1=O`, the IC50 in data set [1] is greater than 100000 nM; in [2], 3690 nM. For the same compound, the Ratio IC50 in the data set listed under Homo sapiens was greater than 27.

On to `Cc1cccc(/C=N/c2ccc(C3=NNC(=O)CO3)cc2)c1`, for which the outcome in the data set on PC-12 [3] and with PC-12 [4] was inactive. Besides, the “inhibition (INH)” value in [5] is “Active”. For the same compound, the viability at 24 h, 50 µM in [6], in data set [7] and in data set [8] was greater than 90% in each case. Also, the figures for the IC50 in data set [1] and in data set [2] were greater than 100000 nM and 1270 nM, respectively. The Ratio IC50 in the data set filed under Homo sapiens was greater than 78.

Take `CCN1N=C(c2ccc(/C=C/c3cccc(Cl)c3)cc2)OCC1=O`: the results for the IC50 in data set [1] and in data set [2] were greater than 100000 nM and greater than 10000 nM, respectively.

On to `Cc1cccc(/C=C/c2ccc(C3=NNC(=O)CO3)cc2)c1`, for which the IC50 in [1] was greater than 100000 nM; in data set [2], 338 nM. Further, the Ratio IC50 in the data set filed under Homo sapiens was greater than 296.

For `O=C1COC(c2ccc(NC(=O)Nc3cccc(Cl)c3)cc2)=NN1`, the figures for the IC50 in data set [1] and in data set [2] were greater than 100000 nM and 2890 nM, respectively. For the same compound, the Ratio IC50 in the data set filed under Homo sapiens was greater than 34.

Take `O=C1COC(c2ccc(/C=C/c3ccc(Cl)cc3)cc2)=NN1`: the IC50 in data set [1] was greater than 100000 nM; in [2] it was 542 nM. For the same compound, the Ratio IC50 in the data set filed under Homo sapiens is greater than 185.

With `O=C1COC(c2ccc(/N=C/c3cccc(Cl)c3)cc2)=NN1`, the result in the data set on PC-12 [3] and in the data set with PC-12 [4] was inactive. In data set [5], the “inhibition (INH)” value is reported as “Active”. In addition, the viability at 24 h, 50 µM in data set [6], in [7] and in data set [8] was greater than 90% throughout. In addition, the half-inhibitory concentration (IC50) in data set [1] was greater than 100000 nM; in data set [2] it was 257 nM. Also, the Ratio IC50 in the data set listed under Homo sapiens was greater than 385.

As to `Cc1cccc(/N=N/c2ccc(C3=NNC(=O)CO3)cc2)c1`, the IC50 in [1] is greater than 100000 nM; in data set [2], 25 nM. The Ratio IC50 in the data set listed under Homo sapiens was greater than 4000.

Take `O=C1COC(c2ccc(NC(=O)c3cccc(Cl)c3)cc2)=NN1`: the IC50 in data set [1] was greater than 100000 nM; in [2] it was 284 nM. In addition, the Ratio IC50 in the data set listed under Homo sapiens was greater than 357.

Regarding `O=C1COC(c2ccc(/N=N/c3ccccc3)cc2)=NN1`, the outcome with PC-12 [3] and in the data set with PC-12 [4] was inactive. The “inhibition (INH)” value in data set [5] and in [9] was “Active” throughout. In addition, the viability at 24 h, 50 µM in [6], in data set [7] and in data set [8] was greater than 90% throughout. Moreover, the IC50 in data set [1] was greater than 100000 nM; in data set [2], 4 nM. Besides, in the data set filed under Homo sapiens, the Ratio IC50 is greater than 25000.

For `O=C1COC(c2ccc(/C=N/Nc3cccc(Cl)c3)cc2)=NN1`, the IC50 in [1] is greater than 10000 nM; in data set [2] it was 554 nM. For the same compound, the Ratio IC50 in the data set listed under Homo sapiens is greater than 18.

For the compound `O=C1COC(c2ccc(C(=O)Nc3cccc(Cl)c3)cc2)=NN1`, the IC50 is greater than 100000 nM in data set [1] and 288 nM in data set [2]. For the same compound, the Ratio IC50 in the data set filed under Homo sapiens was greater than 344.

With `O=C1COC(c2ccc(/N=N/c3ccc(Cl)cc3)cc2)=NN1`, the concentration for half-maximal inhibition (IC50) was greater than 100000 nM in [1] and 392 nM in [2]. In the data set filed under Homo sapiens, the Ratio IC50 was greater than 255.

Regarding `O=C1COC(c2ccc(NCc3cccc(Cl)c3)cc2)=NN1`, the results for the IC50 in data set [1] and in data set [2] were greater than 100000 nM and 2690 nM, respectively. Moreover, the Ratio IC50 in the data set listed under Homo sapiens was greater than 37.

Regarding `O=C1COC(c2ccc(/N=C/c3cccc(F)c3)cc2)=NN1`, the 50% inhibitory concentration (IC50) in [1] is greater than 100000 nM; in data set [2] it was 1530 nM. Further, the Ratio IC50 in the data set listed under Homo sapiens was greater than 65.

As for `O=C1COC(c2ccc(/C=C/c3cccc(F)c3)cc2)=NN1`, the outcome in the data set on PC-12 [3] and in the data set on PC-12 [4] was inactive. The “inhibition (INH)” value in data set [10] and in data set [5] was “Active” throughout. Moreover, the viability at 24 h, 50 µM in [6], in data set [7] and in [8] was greater than 90% in each case. Further, the IC50 was greater than 100000 nM in data set [1] and 22 nM in data set [2]. Also, in the data set listed under Homo sapiens, the Ratio IC50 was greater than 4540.

On to `O=C1COC(c2ccc(/N=N/c3cccc(Cl)c3)cc2)=NN1`, for which the IC50 in data set [1] was greater than 100000 nM; in data set [2], 287 nM. Besides, the Ratio IC50 in the data set filed under Homo sapiens was greater than 348.

With `O=C1COC(c2ccc(/N=C/c3ccccc3)cc2)=NN1`, the results for the IC50 in [1] and in [2] were greater than 100000 nM and greater than 10000 nM, respectively.

`N#CCCN1N=C(c2ccc(NC(=O)c3cccc(Cl)c3)cc2)OCC1=O`: the concentration for half-maximal inhibition (IC50) in data set [1] was greater than 100000 nM; in data set [2], 4230 nM. Further, the Ratio IC50 in the data set listed under Homo sapiens was greater than 24.

As for `CN1N=C(c2ccc(/N=C/c3cccc(Cl)c3)cc2)OCC1=O`, the results for the IC50 in data set [1] and in [2] were greater than 100000 nM and 2030 nM, respectively. The Ratio IC50 in the data set filed under Homo sapiens is greater than 49.

Turning to `O=C1COC(c2ccc(NS(=O)(=O)c3cccc(Cl)c3)cc2)=NN1`, the IC50 in [1] was greater than 100000 nM; in data set [2], greater than 10000 nM.

In the case of `O=C1COC(c2ccc(/C=N/c3cccc(Cl)c3)cc2)=NN1`, the IC50 in data set [1] is greater than 100000 nM; in data set [2] it was 551 nM. For the same compound, in the data set filed under Homo sapiens, the Ratio IC50 was greater than 182.

`O=C1COC(c2ccc(/C=C/c3cccc(Cl)c3)cc2)=NN1`: the half-inhibitory concentration (IC50) was greater than 100000 nM in [1] and 173 nM in [2]. In addition, the Ratio IC50 in the data set listed under Homo sapiens is greater than 578.

For `O=C1COC(c2ccc(/N=N/c3cccc(F)c3)cc2)=NN1`, the half-inhibitory concentration (IC50) in data set [1] was greater than 100000 nM; in data set [2], 12 nM. Also, the Ratio IC50 in the data set listed under Homo sapiens is greater than 8330.
